Laboratory results reported in patent publication US9096576B2, “Compounds and methods for treatment of systemic lupus erythematosus” (The Feinstein Institute For Medical Research, priority 2010, dated 2015).
Entries after “also recorded” stand apart in the source; their conditions may differ.

Experiments:
[1] = test system: human lupus sera; assay: binding of lupus sera to mouse kidney glomeruli; details: data not shown
Method: (§1) The studies above tested the ability of Compound 12W to neutralize monoclonal antibodies derived from mouse or human lupus sera. It was next tested whether Compound 12W would be similarly effective in inhibiting the polyclonal autoreactivity present in lupus patient sera (FIG. 4). Sera from lupus patients were pre-incubated with the Compound 12W and binding to DWEYS (SEQ ID NO:1) and dsDNA was then assayed in a competitive ELISA. […] The ability of Compound 12W to inhibit binding of lupus sera to mouse kidney glomeruli was also assayed.

[2] = test system: R4A antibody; assay: R4A binding to mouse kidney glomeruli in situ; details: for inhibition of R4A binding to mouse kidney glomeruli: antibody pre-incubated, presence and absence of DNAse, FIG. 2A
Excerpt: FIG. 2A-2B. Compound 12W inhibits SLE autoantibody binding to glomeruli in situ. A) Data with R4A. B) Data with G11. From left to right: control, +DNAse, +Compound 12W, +DNAse+Compound 12W.
The kidney is a major target organ in SLE, with renal disease occurring in approximately 50% of patients. Glomerular deposition of circulating autoantibodies leads to a cascade of inflammatory events including renal infiltration by activated immune cells, activation of dendritic cells through Toll-like receptors and pro-inflammatory cytokine production (Bagavant and Fu 2009), which can culminate in end-stage renal disease. […] The R4A and G11 antibodies, as well as other pathogenic lupus antibodies, bind to both DNA and non-DNA antigens present in kidney glomeruli ex vivo. […] To test if Compound 12W could block the binding of the R4A antibody to its renal antigens in situ, the R4A antibody was incubated with mouse kidney glomeruli in the presence and absence of Compound 12W and its binding measured by detection with fluorescently-conjugated secondary antibodies.

[3] = test system: autoantibodies present in serum from multiple lupus patients; assay: competitive ELISA, lupus patient sera binding to DWEYS peptide; design: species or system human; details: sera pre-incubated, FIG. 4
Method: FIG. 4. Compound 12W inhibits autoantibodies present in human SLE sera. Inhibition of human SLE sera binding to antigens in vitro.
as §1

[4] = test system: R4A or G11 antibodies; assay: neurotoxicity of intracerebrally injected lupus autoantibodies, TUNEL staining; type: in vivo, mice
Method: FIG. 3. Compound 12W inhibits neurotoxicity of autoantibodies. The lupus autoantibodies caused significant neuronal apoptosis, as indicated by positive TUNEL staining (right panels).
Both R4A and G11 cause excitotoxic death of neurons in the mouse hippocampus (Zhang et al. 2009). Therefore, the ability of Compound 12W to negate the neurotoxicity of these autoantibodies was assayed. To test the neuroprotective potential of Compound 12W, mice were injected intracerebrally with R4A or G11 antibodies in the presence and absence of Compound 12W. As shown previously, the lupus autoantibodies caused significant neuronal apoptosis, as indicated by positive TUNEL staining (FIG. 3, upper and lower right panels). […] The neuroprotective dose of Compound 12W was 2 logs less than that previously used to achieve similar neuroprotection with the DWEYS (SEQ ID NO:1) peptide (Huerta et al. 2006).

[5] = test system: R4A mouse autoantibody; assay: competitive ELISA, R4A autoantibody binding to its antigens; details: in vitro; for inhibition of R4A binding to DWEYS peptide: antigen DWEYS peptide, FIG. 1B; for inhibition of R4A binding to dsDNA: antigen dsDNA, FIG. 1C
Excerpt: (§2) FIG. 1A-1E. Compound 12W inhibits antigen recognition by systemic lupus erythematosus (SLE) autoantibodies. A) Structures of Compound 12W and WEY peptide (i.e., a tripeptide identical to the pentapeptide DWEYS (SEQ ID NO:1) less the carboxyl serine residue and the amino terminal aspartate of the pentapeptide). B) R4A mouse autoantibody binding to DWEYS (SEQ ID NO:1) peptide. C) R4A mouse autoantibody binding to DNA. D) G11 human autoantibody binding to DWEYS (SEQ ID NO:1) peptide. E) G11 human autoantibody binding to DNA. In B)-E), antibody binding in the presence of DWEYS peptide is shown in the right plot in each figure. Compound 12W inhibits binding as shown by the left plot in each figure.

[6] = test system: G11 human autoantibody; assay: competitive ELISA, G11 autoantibody binding to its antigens
Excerpt: as §2

[7] = test system: anti-BSA antibody; assay: binding of an anti-BSA antibody to BSA (specificity control); details: data not shown
[8] = test system: anti-dsDNA/NMDAR G11/R4A/human lupus antibody; assay: glomerular deposition of anti-dsDNA/NMDAR antibody in vivo; design: species or system SCID mice
Method: In order to test if Compound 12W was also effective at protecting the kidney, a major target organ in lupus, from antibody deposition, the anti-dsDNA/NMDAR G11/R4A/human lupus antibody was administered to SCID mice in the absence and presence of Compound 12W and glomerular deposition was measured.

[9] = test system: R4A antibody; details: literature; cited from earlier work
[10] = test system: anti-dsDNA/NMDAR G11/R4A/human lupus antibody; details: mice; Gaynor et al. 1997, Huerta et al. 2006; cited from earlier work

Row | Compound | inhibition of binding of human lupus sera to mouse kidney glomeruli [1] | inhibition of R4A binding to mouse kidney glomeruli [2] | dose dependence of inhibition of R4A binding to glomeruli ([2]; data not shown) | inhibition of lupus patient sera binding to DWEYS peptide [3] | neuroprotective dose relative to that previously used with the DWEYS peptide ([4]; less than DWEYS peptide dose (Huerta et al. 2006)) [logs] | neuronal apoptosis caused by lupus autoantibodies (TUNEL staining) ([4]; mice, intracerebral co-administration with R4A or G11, FIG. 3) | inhibition of R4A binding to DWEYS peptide [5] | inhibition of R4A binding to dsDNA [5] | inhibition of G11 binding to DNA ([6]; antigen DNA, FIG. 1E) | inhibition of G11 binding to DWEYS peptide ([6]; antigen DWEYS peptide, FIG. 1D) | inhibition of binding of an anti-BSA antibody to BSA [7] | autoantibody binding to renal tissue in vivo [8] | glomerular binding by R4A blocked (Gaynor et al 1997) [9] | renal (and brain) deposition of anti-DNA/NMDAR antibodies in vivo, literature [10]
1 | CC(C)(C)NCC1CC2CCCCC2CN1CC(O)C(Cc1ccccc1)NCC(CCN)NCC1Nc2ccccc2CC1O (centres unmarked) [Compound 12W, 2-((4-amino-1-(4-(3-((tert-butylamino)methyl)octahydroisoquinolin-2(1H)-yl)-3-hydroxy-1-phenylbutan-2-ylamino)butan-2-ylamino)methyl)-1,2,3,4-tetrahydroquinolin-3-ol] | blocked binding of human lupus sera to kidney antigens | Dramatically less binding was observed to both DNA and non-DNA antigens | dependent on the dose | able to inhibit binding | 2 | blocked the neurotoxic effects of the lupus antibodies | able to inhibit R4A binding to these same antigens at nM concentrations | able to inhibit R4A binding to these same antigens at nM concentrations | inhibited G11 binding at similar concentrations to its effect on R4A binding | inhibited G11 binding at similar concentrations to its effect on R4A binding | failed to inhibit binding | blocked autoantibody binding to renal tissue both ex vivo and in vivo | – | –
2 | DWEYS peptide: pentapeptide DWEYS (SEQ ID NO:1), antigen/mimetope recognised by anti-dsDNA/NMDAR lupus autoantibodies (listed as Homo sapiens) [reference compound] | – | could be mimicked by pre-incubation of the R4A antibody with the DWEYS (SEQ ID NO:1) peptide at mM concentrations | – | – | – | – | inhibitable by DWEYS (SEQ ID NO:1) peptide at mM concentrations | inhibitable by DWEYS (SEQ ID NO:1) peptide at mM concentrations | – | – | – | – | can be blocked | blocks renal and brain deposition of anti-DNA/NMDAR antibodies in mice; also recorded: able to block binding of the anti-dsDNA antibodies to kidneys in vivo
